From patent publication US20250186379A1, “METHODS AND AGENTS FOR DECREASING INSULIN RESISTANCE” (Whitehead Institute for Biomedical Research, priority 2021, published 2025) come the findings set out here.

This test relates to IR puncta. As to the kind of experiment: Immunofluorescence for IR in human primary adipocytes. Type of test: cell-based. The conditions noted are these: for IR incorporation into puncta: 3 nM insulin 5 minutes. As for the experimental part: Primary pre-adipocytes from (ATCC, PCS-210-010) were cultured in Fibroblast Growth Kit-Low Serum (ATCC PCS-201-041), as per manufacturer's instructions. Cells for experiments were dissociated and plated at 18,000 cells/cm2. Two days later pre-adipocytes were differentiated in adipocyte differentiation media (ATCC PCS-500-050), as per manufacturer's instructions. Briefly, cells were washed and medium was replaced with adipocyte differentiation initiation medium. After 48 hours, half the medium was replaced. At day 4, medium was changed to adipocyte differentiation maintenance medium, and replaced every three days. At day 12, cells were rinsed and incubated in DMEM (Thermo Fisher, 11885084) with 0.1 or 3 nM of insulin for 5 days, replacing medium every other day. In the last 24 hours, 12.5 μM metformin was added. On day 17, cells were prepared for the assays by rinsing, and 30 minutes of washing. Afterwards, for imaging, cells were exposed to 3 nM insulin for 5 minutes, rinsed with PBS and fixed in 4% PFA for 15 minutes at room temperature. For pAKT ELISAs cells were exposed to 3 nM insulin for 15 minutes and harvested in cell lysis buffer (Cell Signaling Technology, #9803) with phosphatase inhibitor (Thermo Fisher Scientific, 78442).
For adipocytes, following differentiation, cells were cultured with EMEM for 2 days and with EMEM containing either physiological (0.1 nM) or pathological (3 nM) concentrations of insulin for 2 days. Cells were then cultured with EMEM containing either physiological (0.1 nM) or pathological (3 nM) of insulin or with pathological (3 nM) concentrations of insulin and 12.5 μM of metformin for 1 day. Cells were then washed with EMEM and acutely stimulated with or without 3 nM insulin for 5 minutes prior to cell collection for immunofluorescence or ELISA.
HepG2 cells, human liver spheroids, human primary adipocytes and human tissue liver sections were fixed in 4% PFA (VWR, BT140770-10X10) in PBS (Life Technologies, AM9625) for 10 minutes at room temperature. […]

For the compound “insulin: insulin (Sigma Aldrich, I9278-5ML) used for acute stimulation and chronic physiological or pathological exposure”, the “IR incorporation into puncta” value (insulin-resistant adipocytes) was “less able to promote further IR incorporation into puncta” and the “IR incorporation into puncta” value (insulin-sensitive adipocytes) was “promoted further IR incorporation into these puncta”.

Regarding `CN(C)C(=N)N=C(N)N` [metformin, reference compound], for the setting “insulin-resistant adipocytes, 12.5 μM metformin 1 day, 3 nM insulin 5 min”, the “IR incorporation into puncta (IR signal)” value is “reversed”.
